Patent publication US4567197A, “1,3-Dioxan-5-ylalkenoic acids” (Imperial Chemical Industries PLC, priority 1982, dated 1986)

Assays:
[1] = tested on: hypertensive effects of the TXA2 mimetic U46619; experiment: antagonism of the hypertensive effect of U46619 in anaesthetised rats; assay type: in vivo, rat (Alderley Park strain); details: for period of significant reduction of the hypertensive effects of U46619: oral administration, dose not stated
Description: Male rats (Alderley Park strain) are anaesthetised with sodium pentabarbital and blood pressure is monitored at the carotid artery. The TXA2 mimetic agent known as U46619 (e.g. R. L. Jones, et alia, in "Chemistry, Biochemistry and Pharmacological Activity of Prostanoids" eds. S. M. Roberts and F. Scheinmann, at p.211; Pergamon Press, 1979) is administered intravenously via the jugular vein and an ED50 (dose necessary to produce 50% of the maximum hypertensive effect) is established (n=3). The ED50 for U46619 is approximately 5 μg/kg. A test compound is then administered either intravenously via the jugular vein or orally via a cannula directly into the stomach and the animal challenged with an ED50 dose of U46619, five minutes after dosing with test compound and then successively every ten minutes until the hypertensive effect of U46619 is no longer blocked.

[2] = tested on: bronchoconstriction induced in the Konzett-Rossler guinea-pig model; experiment: bronchoconstriction test (c), Konzett-Rossler guinea-pig model, induced by U46619; assay type: in vivo; details: 5 mg./kg. i.v., U46619 1-1.5 μg/kg i.v.
Text: (§1) As stated earlier, the compounds of formula I are antagonists of one or more of the actions of TXA2, for example certain of its actions on blood platelets, the vasculature and/or the lung.
(c) a standard bronchoconstriction test involving measuring the inhibition by a test compound of the bronchoconstriction induced in the Konzett-Rossler guinea-pig model (as modified by Collier and James, Brit. J. Pharmacol., 1967, 30, 283-307) by intravenous administration of the TXA2 mimetic agent, U46619 at 1-1.5 μg/kg.

[3] = tested on: citrated, platelet rich human plasma; experiment: blood platelet aggregation test (b), induced by arachidonic acid; assay type: cell-based; details: aggregation induced by sub-maximal arachidonic acid (25-100 μg/ml.)
Description: as §1
(b) a standard blood platelet aggregation test based on that described by Born (Nature, 1962, 194, 927-929) and involving measuring the inhibition by a test compound of aggregation of citrated, platelet rich human plasma induced by a sub-maximal concentration (in the range 25-100 μg/ml.) of arachidonic acid; and […]

[4] = tested on: rabbit aortal strip; experiment: rabbit aortal strip test (a), TXA2 as agonist
Description: as §1
(a) The standard rabbit aortal strip model devised by Piper and Vane (Nature, 1969, 223, 29-35) using as agonist a freshly prepared sample of TXA2, generated by addition of arachidonic acid (25 μg. to citrated, platelet rich rabbit plasma (250 μl. ) and allowing the mixture to aggregate fully over 90 seconds before use;

SMILES	period of significant reduction of the hypertensive effects of U46619 [1]	other results
CC(C)[C@H]1OC[C@@H](C/C=C\CCCC(=O)O)[C@@H](c2ccccc2)O1 (relative stereo) [Compound 20]	at least 60 minutes	
O=C(O)CCC/C=C\C[C@@H]1CO[C@H](c2ccc(Cl)cc2)O[C@@H]1c1ccccc1 (relative stereo) [Compound 13]	at least 60 minutes	
CC1(C)OC[C@@H](C/C=C\CCCC(=O)O)[C@@H](c2ccccc2)O1 (relative stereo) [Example 1, 5(Z)-7-(2,2-dimethyl-4-phenyl-1,3-dioxan-cis-5-yl)heptenoic acid]		reduction of bronchoconstriction [2]: 90%; IC50 [3]: ~67 µM; pA2 [4]: 6.28
CC1(C)OC[C@@H](C/C=C\CCCC(=O)O)[C@@H](c2cccc(F)c2)O1 (relative stereo) [Compound 3]	at least 60 minutes	
O=C(O)CCC/C=C\C[C@@H]1CO[C@H](c2ccc3c(c2)OCO3)O[C@@H]1c1ccccc1 (relative stereo) [Compound 21]	at least 60 minutes	
Cc1ccccc1[C@H]1OC(C)(C)OC[C@H]1C/C=C\CCCC(=O)O (relative stereo) [Compound 24, 5(Z)-7-[2,2-dimethyl-4-(2-methylphenyl)-1,3-dioxan-cis-5-yl]heptenoic acid]	at least 60 minutes	
CCCCC[C@H](O)/C=C/[C@@H]1[C@@H](C/C=C\CCCC(=O)O)[C@H]2CO[C@@H]1C2 [Example U46619, reference compound]		ED50 ([1]; Rattus norvegicus, intravenous via jugular vein, n=3, read-out: ED50 (dose necessary to produce 50% of the maximum hypertensive effect)): ~5 µg/kg
C[C@H]1OC[C@@H](C/C=C\CCCC(=O)O)[C@@H](c2ccccc2)O1 (relative stereo) [Compound 23, 5(Z)-7-([2,4,5-cis]-2-methyl-4-phenyl-1,3-dioxan-5-yl)heptenoic acid]	at least 60 minutes	
O=C(O)CCC/C=C\C[C@@H]1CO[C@H](c2ccccc2Cl)O[C@@H]1c1ccccc1 (relative stereo) [Compound 11]	at least 60 minutes	
COc1ccccc1[C@H]1OC(C)(C)OC[C@H]1C/C=C\CCCC(=O)O (relative stereo) [Compound 5, 5(Z)-7-[2,2-dimethyl-4-(2-methoxyphenyl)-1,3-dioxan-cis-5-yl]heptenoic acid]	at least 60 minutes	
CCC1(CC)OC[C@@H](C/C=C\CCCC(=O)O)[C@@H](c2ccccc2)O1 (single isomer, unassigned) [Example 100, (-)-5(Z)-(2,2-diethyl-4-phenyl-1,3-dioxan-cis-5-yl)heptenoic acid]		period of significant reduction (>30%) of the hypertensive effects of U46619 ([1]; oral, 50 mg./kg.): 120 min; reduction of the hypertensive effects of U46619 ([1]; oral, 50 mg./kg., for a period of 120 minutes): > 30%
CCC1(CC)OC[C@@H](C/C=C\CCCC(=O)O)[C@@H](c2ccccc2)O1 (relative stereo) [Compound 1, 5(Z)-7-(2,2-diethyl-4-phenyl-1,3-dioxan-cis-5-yl)heptenoic acid]	at least 60 minutes	
O=C(O)CCC/C=C\C[C@@H]1COC2(CCCCC2)O[C@@H]1c1ccccc1 (relative stereo) [Compound 2, 5(Z)-7-(4'-phenyl-[cyclohexanespiro-2'-1,3-dioxan]-cis-5'-yl)heptenoic acid]	at least 60 minutes	
